Test results from ChEMBL document CHEMBL1142432 (J Med Chem, 2008).
Converted amounts (≈) assume the structure as drawn.

Key:
[1] = test system: Canis familiaris; test: Toxicity in dog at 25 mg/kg for 30 days; type: organism-based, Canis lupus familiaris; design: dose 25 mg/kg; details: in vivo, 720 h
[2] = Oral bioavailability in dog at 25 mg/kg; type: ADME, organism-based, Canis lupus familiaris; details: in vivo
[3] = test system: Rattus norvegicus; test: Toxicity in rat at 25 mg/kg for 30 days; type: organism-based; design: dose 25 mg/kg; details: in vivo, 720 h
[4] = Aqueous solubility of the compound; type: physicochemical
[5] = test system: Mycobacterium tuberculosis; test: Antimycobacterial activity against Mycobacterium tuberculosis H37Rv; type: functional
[6] = test system: Rattus norvegicus; test: Toxicity in rat at 50 mg/kg, po for 30 days; type: organism-based; design: dose 50 mg/kg, route oral; details: in vivo, 720 h
[7] = target: T1, Amine oxidase [flavin-containing] A (Homo sapiens, UniProt P21397); test: Inhibition of monoamine oxidase A
T1 sequence (P21397 whole entry): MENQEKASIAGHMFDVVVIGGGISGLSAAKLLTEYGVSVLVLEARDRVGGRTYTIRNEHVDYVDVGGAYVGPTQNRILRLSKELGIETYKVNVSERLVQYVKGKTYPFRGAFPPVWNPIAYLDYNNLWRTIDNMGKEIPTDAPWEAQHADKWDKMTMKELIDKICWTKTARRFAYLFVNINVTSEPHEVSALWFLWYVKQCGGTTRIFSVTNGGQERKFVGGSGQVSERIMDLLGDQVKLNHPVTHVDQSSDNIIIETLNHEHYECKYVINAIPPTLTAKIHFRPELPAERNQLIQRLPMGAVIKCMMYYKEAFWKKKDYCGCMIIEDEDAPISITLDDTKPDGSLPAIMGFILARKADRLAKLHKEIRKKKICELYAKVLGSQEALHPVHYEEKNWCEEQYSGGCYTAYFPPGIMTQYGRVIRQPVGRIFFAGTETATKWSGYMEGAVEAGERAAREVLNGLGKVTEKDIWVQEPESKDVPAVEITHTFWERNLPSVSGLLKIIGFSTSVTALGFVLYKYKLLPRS

[8] = test system: Rattus norvegicus; test: Toxicity in rat at 20 mg/kg for 30 days; type: organism-based; design: dose 20 mg/kg; details: in vivo, 720 h
[9] = Renal clearance in human; type: ADME, organism-based, Kidney; details: in vivo, read-out: CL_renal
[10] = Drug level in human lung epithelial lining fluid at 600 mg, po bid after 4 hrs; type: ADME, organism-based; details: read-out: Drug uptake
[11] = Total clearance in human; type: ADME, organism-based; details: in vivo
[12] = Drug level in human urine; type: ADME, tissue-based; details: read-out: Drug uptake
[13] = test system: Canis familiaris; test: Toxicity in dog at 40 mg/kg, po for 30 days; type: organism-based, Canis lupus familiaris; design: dose 40 mg/kg, route oral; details: in vivo, 720 h
[14] = test system: Canis familiaris; test: Toxicity in dog at 20 mg/kg for 30 days; type: organism-based, Canis lupus familiaris; design: dose 20 mg/kg; details: in vivo, 720 h
[15] = test system: Staphylococcus aureus; test: Protection against methicillin-resistant Staphylococcus aureus infection in pneumonia patient; type: functional
[16] = Elimination half life in human; type: ADME, organism-based; details: in vivo
[17] = test system: Plasma; test: Plasma concentration in human at 600 mg, po bid; type: ADME, organism-based; details: in vivo
[18] = test system: Enterococcus; test: Protection against vancomycin-resistant Enterococcus infection in pneumonia patient; type: functional
[19] = species on record: Homo sapiens; test: Nonrenal clearance in human; type: ADME, organism-based; details: in vivo

## CC(=O)NC[C@H]1CN(c2ccc(N3CCN(C(=O)CO)CC3)c(F)c2)C(=O)O1 [EPEREZOLID]
[1]
  Activity: Non-toxic
[2]
  bioavailability: 100%
[3]
  Activity: Non-toxic

## CC(=O)NC[C@H]1CN(c2ccc(N3CCSCC3)c(F)c2)C(=O)O1 [SUTEZOLID]
[4]
  solubility: 200 µg/mL (≈ 566 µM)
[5]
  MIC: ≤ 0.125 µg/mL

## CC(=O)NC[C@H]1CN(c2ccc(N3CCOCC3)c(F)c2)C(=O)O1 [LINEZOLID]
[6]
  Activity: Non-toxic
[7]
  Ki: 55 µM
[8]
  Activity: Non-toxic
[9]
  CL renal: 30 mL/min
[10]
  concentration at 4 h: 64.3 µg/mL
[11]
  clearance: 100 mL/min
[12]
  dose excreted: 20%
[13]
  Activity: Non-toxic
[14]
  Activity: Non-toxic
[15]
  Efficacy: 77%
[16]
  half-life: 5 h
[17]
  Cp: 7.3 µg/mL
[18]
  Efficacy: 88%
[19]
  CL: 70 mL/min

## NNC(=O)c1ccncc1 [ISONIAZID]
[5]
  MIC: 0.2 µg/mL (≈ 1.46 µM)

## CN[C@H](CC(C)C)C(=O)N[C@H]1C(=O)N[C@@H](CC(N)=O)C(=O)N[C@H]2C(=O)N[C@H]3C(=O)N[C@H](C(=O)N[C@H](C(=O)O)c4cc(O)cc(O)c4-c4cc3ccc4O)[C@H](O)c3ccc(c(Cl)c3)Oc3cc2cc(c3O[C@@H]2O[C@H](CO)[C@@H](O)[C@H](O)[C@H]2O[C@H]2C[C@](C)(N)[C@H](O)[C@H](C)O2)Oc2ccc(cc2Cl)[C@H]1O [VANCOMYCIN]
[15]
  Activity: 74%
